Columns and labels:
[1] = test system: Plek2-overexpressed Cos-7 cells; assay: Lamellipodia formation assay in Plek2-overexpressed Cos-7 cells (phalloidin actin stain); assay type: cell-based; conditions: 10 μM
Experimental: (§1) FIG. 4. NUP-17 directly targets and binds to Plek2. (A) Plek2 was overexpressed in mouse fetal liver Ter119 negative erythroblasts. NUP-17 (40 μM) were added in the control cells and Plek2 overexpressed cells. Cell number was calculated 48 hours after culture. (B) Plek2 was overexpressed in Cos-7 cells. Phalloidin 647 was used to stain actin in the indicated cells. 10 μM of NUP-17 was used. (C) Quantitative analysis of B. (D) ITC experiments using the microCal ITC200 instrument. 200 μM NUP-17 was titrated into a solution of 20 μM GST control or GST-Plek2. *P<0.05; *** P<0.001. 17 represents NUP-17.
FIG. 5. Identification of a potent analog of NUP-17. (A) NUP-17d was analyzed for the inhibitory effects on fetal liver erythroblasts as in FIG. 3. Indicated doses were used. (B) The structure of NUP-17d. (C) Plek2 was overexpressed in Cos-7 cells. Phalloidin 647 was used to stain actin in the indicated cells. 10 μM of NUP-17 and NUP-17d were used. (D) Quantitative analysis of C. **P<0.01; *** P<0.001. 17 and 17d represent NUP-17 and NUP-17d, respectively.
To confirm that the inhibitory effect of NUP-17 on the proliferation and differentiation of fetal liver erythroid cells is due to Plek2 binding, we overexpressed Plek2 in the fetal liver cells and treated the cells with NUP-17. […]

[2] = test system: phosphorylation of Akt; assay: Akt phosphorylation in erythropoietin-treated bone marrow lineage negative cells (Western blot); assay type: cell-based, mouse; conditions: wild type bone marrow lineage negative cells, 10 μM
Experimental: (§2) FIG. 7. Plek2 binds to PtdIns(3,4)P2 and is critical for the PI3K signaling pathway. […] (B) Plek2 membrane association and cell spreading are PI3K dependent. Jurkat cells expressing GFP fused to the amino-terminus of wild-type Plek2 were plated on fibronectin. Real-time confocal imaging of live cells was performed. Shown is a cell expressing Plek2 before and after inhibition of PI3K with 100 nM wortmannin. (C) Bone marrow lineage negative cells from the indicated mice were treated with 2 units erythropoietin for the indicated amount of time (minutes). The level of Phospho-Akt and total Akt were analysis by Western blot assays. (D) Same as C except wild type bone marrow cells were used. 10 μM NUP-17d was used. The levels of the indicated proteins were analyzed by Western blot assays. (E) Kaplan-Meier survival analysis of indicated mice. Ptenfl/fl mice were crossed with Mx-Cre and Plek2 whole body knockout mice. The deletion of Pten in the hematopoietic tissues was induced by poly-IC injection. N=5 in each group. P=0.0067 between Ptenfl/flMx-Cre and Ptenfl/flMx-Cre, Plek2 KO. (F) Hematoxylin and eosin stain of the lungs from representative mice in E. Scale bar: 100 μm.
To further determine the role of Plek2 in PI3K pathway, we overexpressed GFP-fusion Plek2 in Jurkat cells. […]

[3] = molecular target: T1, Plek2 (Homo sapiens, UniProt Q9NYT0); assay: Plek2-lipid binding (protein-lipid overlay); conditions: data not shown
T1 construct: we examined the ability of full-length protein to adhere to various phospholipids
T1 sequence (Q9NYT0 1-353): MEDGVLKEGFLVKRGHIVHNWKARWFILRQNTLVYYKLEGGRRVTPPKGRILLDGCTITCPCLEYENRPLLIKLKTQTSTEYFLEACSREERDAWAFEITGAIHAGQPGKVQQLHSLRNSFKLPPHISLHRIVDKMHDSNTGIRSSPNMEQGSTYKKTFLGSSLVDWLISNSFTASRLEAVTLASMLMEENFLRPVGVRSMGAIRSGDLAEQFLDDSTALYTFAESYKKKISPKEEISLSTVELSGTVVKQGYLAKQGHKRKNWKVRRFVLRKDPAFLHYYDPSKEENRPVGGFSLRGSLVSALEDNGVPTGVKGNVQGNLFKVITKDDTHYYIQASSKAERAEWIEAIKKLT
Experimental: as §2
Rationale and Preliminary Data. […] To define the lipid binding specificity of Plek2, we examined the ability of full-length protein to adhere to various phospholipids.

[4] = molecular target: T2, GST-Plek2 (Homo sapiens, UniProt Q9NYT0); assay: Isothermal titration calorimetry (ITC) binding to GST-tagged Plek2; conditions: FIG. 17
T2 construct: made in house
T2 sequence (Q9NYT0 1-353): T1 sequence (Q9NYT0 1-353)
Experimental: as §1
(§3) FIG. 17. Isothermal titration calorimetry (ITC) experiments of NUP-17d and its enantiomers. -17-d: delta H=−1.9 kcal/mol delta S=+22.9 cal/molK; -17-1b: delta H=−2.2 kcal/mol delta S=+22.8 cal/molK; -17-2b: delta H=−1.5 kcal/mol delta S=+24.3 cal/molK; -17-1a: delta H=−5.3 kcal/mol delta S=+7.3 cal/molK; and -17-2a: delta H=−4.2 kcal/mol delta S=+13.9 cal/molK.
(§4) To confirm that the inhibitory effect of NUP-17 on the proliferation and differentiation of fetal liver erythroid cells is due to Plek2 binding, we overexpressed Plek2 in the fetal liver cells and treated the cells with NUP-17. […] In addition, we also overexpressed Plek2 in Cos-7 cells, which induced prominent lamellipodia formation as previously reported (13).
Biophysical Assays and Counter-Screening. […]

[5] = test system: JAK2V617F knockin mice; assay: JAK2V617F knockin MPN mouse model; assay type: in vivo; conditions: 25 mg/kg once every two days, one month
Experimental: FIG. 15A and FIG. 15B. Compound NUP-17d ameliorates myeloproliferation and thrombosis in JAK2^V617F knockin mice. FIG. 15A. RBC and WBC count of indicated mice after NUP-17d treatment. Two-month-old JAK2^V617F knockin mice were treated with NUP-17d once every two days for three weeks. Wild type (WT) littermate control mice were used for comparison *P<0.05; ** P<0.01; *** P<0.001. FIG. 15B. H&E stain of the spleen and lung sections. Inserted panels with high magnification reveal vascular occlusions. Scale bars: 100 μm.
We tested the effects of Plek2 inhibitors in the JAK2^V617F knockin MPN mouse model. (See FIGS. 15A and 15B). The same dosage and dosing schedule of NUP-17d (25 mg/kg, once every two days) were applied to JAK2^V617F knockin mice as those applied to the Epo model. We have treated the mice for one month. […] (See FIG. 15A). […] (See FIG. 15B).

[6] = test system: mouse fetal liver erythroid progenitors; assay: Proliferation of mouse fetal liver erythroid progenitors cultured in erythropoietin containing medium (Plek2 functional screening system); assay type: cell-based; conditions: mouse fetal liver erythroblasts, Epo medium
Experimental: FIG. 3. NUP-17 inhibits Plek2 function in fetal liver erythropoiesis. (A) Mouse Ter119 (a mature erythroid cell marker) negative erythroblasts were purified and cultured for two days (D0-D2). The protein levels of Plek2 and Hsc70 loading control were analyzed by a Western blot assay. (B) The structure of NUP-17. (C-D) The proliferation and enucleation (DNA negative) profiles of cells from A treated with different concentration of NUP-17 for 48 hours. (E) Simulated Plek2 DEP domain interaction with NUP-17 using Schrodinger software. Amino acids that are potentially critical for the interaction are highlighted in yellow. *P<0.05; ** P<0.01; *** P<0.001.
FIG. 4. NUP-17 directly targets and binds to Plek2. (A) Plek2 was overexpressed in mouse fetal liver Ter119 negative erythroblasts. NUP-17 (40 μM) were added in the control cells and Plek2 overexpressed cells. Cell number was calculated 48 hours after culture. (B) Plek2 was overexpressed in Cos-7 cells. Phalloidin 647 was used to stain actin in the indicated cells. 10 μM of NUP-17 was used. (C) Quantitative analysis of B. (D) ITC experiments using the microCal ITC200 instrument. […]
FIG. 5. […] (A) NUP-17d was analyzed for the inhibitory effects on fetal liver erythroblasts as in FIG. 3. […] (D) Quantitative analysis of C. **P<0.01; *** P<0.001. […]
FIG. 11. […] Analogs of NUP-17d were analyzed for their effect on fetal liver erythroblast proliferation as in FIG. 3. […]

[7] = test system: Epo-induced myeloproliferation in wild-type mice; assay: Erythropoietin (Epo) injection mouse model; assay type: in vivo
[8] = molecular target: T2, GST-Plek2; assay: isothermal titration calorimetry (ITC) of NUP-17d and its enantiomers with Plek2; assay type: binding; conditions: PBS with 0.5% DMSO, 200 μM compound into 20 μM GST-Plek2
Experimental: as §1, §3, §4
Biophysical Assays and Counter-Screening. To confirm the interaction of the optimized compounds with Plek2, we will perform isothermal calorimetry (ITC) using the recombinant protein GST-Plek2 or Flag-tagged Plek2 we have produced. Specifically, MicroCal ITC200 instrument (GE Healthcare) with the jacket temperature will set at 25° C. The protein and our compound solutions will be prepared in PBS with 0.5% DMSO. Titrations of 200 μM compound into 20 μM GST-Plek2 solutions will be sufficient for 15 injections of 2.5 μl each with 120 seconds spacing between injections and a mixing speed at 900 rpm. An initial 0.1 μl injection will subsequently be removed during data analysis. A control experiment will be performed by titrating 200 μM compound into a solution of 20 μM GST. […]

[9] = 40 mg/kg every 2 days for 8 days
[10] = FIG. 17, general method: MicroCal ITC200, 25° C

CN1CCN(C(c2ccc(Cl)cc2)C(O)C(=O)c2c[nH]c3ccccc23)CC1 (stereo not shown) [NUP-17d]
reversal of lamellipodia in Plek2 overexpressed Cos-7 cells [1]: more potent inhibition | phosphorylation of Akt [2]: significantly inhibited | disruption of Plek2-lipid binding [3]: did not disrupt Plek2-lipid binding | ITC delta H [4]: -1.9 kcal/mol | ITC delta S [4]: +22.9 cal/molK | WBC count [5]: largely normalized | red blood cell count [5]: significantly reduced | side effects with the treatment [5]: no gross side effects | spleen size and extramedullary erythropoiesis [5]: markedly reduced | vascular occlusions in the lungs [5]: dramatically ameliorated | IC50 [6]: < 10 µM | Epo-induced erythrocytosis in spleen red pulp and lung vasculature (histology) [7, 9]: markedly ameliorated | Epo-induced leukocytosis [7, 9]: significantly reduced | Epo-induced reticulocytosis [7, 9]: significantly reduced | Epo-induced splenomegaly [7, 9]: significantly reduced | Epo-induced vascular occlusions [7, 9]: significantly reduced | tolerability ([7]; 40 mg/kg, 2 days, preliminary studies): well-tolerated | red blood cell count ([7]; Epo 5,000 U/kg every 2 days, compound 40 mg/kg every 2 days for 8 days, 3 weeks): did not significantly reduce | hematologic or other abnormalities in treated mice ([7]; during the experiments): no hematologic or other abnormalities

CN1CCN([C@@H](c2ccc(Cl)cc2)[C@H](O)C(=O)c2c[nH]c3ccccc23)CC1 [17d-1b]
Kd [8, 10]: 0.357 µM

CN1CCN([C@H](c2ccc(Cl)cc2)[C@@H](O)C(=O)c2c[nH]c3ccccc23)CC1 [17d-1a]
Kd ([8]; FIG. 17, value printed in uM, general method: MicroCal ITC200, 25° C): 2.12 µM

CN1CCN(C(c2ccc(Cl)cc2)C(O)C(=O)c2c[nH]c3ccccc23)CC1 (stereo not shown) [17d]
Kd [8, 10]: 0.4 µM
